Where “and” joins values, the source holds several entries; their conditions need not be identical. Equal values may be shown once. Read-outs that look alike come from different tables or passages of the source.
Experiments:
[1] = test system: Friend Leukemia Virus; assay: Inhibition of Friend Leukemia Virus-induced splenomegaly in mice, compounds intraperitoneally 24 hours after virus (Example 1(a)); format: in vivo, BALB/c mice; design: Actual Spleen Weight / Average Spleen Weight: unit not given here; details: for inhibition in vivo at 0.1 mg / inhibition in vivo at 0.05 mg / inhibition in vivo at 0.2 mg: Mus musculus, ip; for Pooled Average % Inhibition: pooled over 50, 100, 200, 2 × 100 micrograms; for Actual Spleen Weight: single animal
Excerpt: The effects of compositions according to the present invention on infection of mammals with Friend Leukemia Virus (FV) were examined.
Friend Leukemia Virus is an aggressive retrovirus which induces an acute erythroleukemia in sensitive strains of mice such as BALB/c and NIH swiss mice as described in Friend, C. J., Exp. Med. 105: 307-324, 1957; Friend, C. et al. Proc. Natl. Acad. Sci. USA 68: 378-383, 1971; Friend, C. et al. Natl. Cancer Inst. Mongr. 22: 508-552, 1966. The malignant transformation is the result of the combined activities of the Spleen Focus Forming Virus (SFFV) and the ecotropic Murine Friend Leukemia Helper Virus (F-MuLV). The acute erythroleukemia is characterized by hepatosplenomegaly (a marked increase in the size of the spleen and liver) and a severe anemia.
Friend Leukemia Virus was prepared by homogenizing the enlarged spleen of a mouse previously infected with FV, 10 days after intravenous virus injection. The spleen was homogenized in phosphate buffered saline in a volume equal to ten times the weight of the isolated spleen.
(§1) The effects of compositions according to the present invention on the increase in spleen size (splenomegaly) of BALB/c mice (Jackson Labs, Bar Harbor, ME) was examined. In these experiments, the virus (10^6 focus forming units--FFU) was inoculated intravenously and 100 micrograms of the compounds indicated in Table II were administered to the mice intraperitoneally 24 hours later. Each compound was administered once to two mice. The animals were sacrificed ten days later and their spleens weighed.
The present assay has been developed from similar assays using hypericin or pseudohypericin and employing higher numbers of experimental animals per group (e.g. 4 animals). It was discovered however that the specificity and sensitivity of this assay are such that an experimental group of two animals is of more than adequate predictive value.
(§2) As used in Table II (and subsequent Tables of this Example l(a) and (b), "average percent inhibition" is calculated as follows: [formula] wherein "ASWNC" designates "average spleen weight of negative control"; "ASWE" designates "average spleen weight of experimental (treated) subject"; and "ASWPC" designates "average spleen weight of positive control". Average spleen weight is the numerical average of spleen weights of each experimental group (in Table II each such group includes two members).
In these experiments, the virus (10^6 focus forming units--FFU) was inoculated intravenously, and the indicated doses of the antiviral compounds of this invention were administered to the BALB/c mice intraperitoneally 24 hours later. The animals were then sacrificed ten days later and their spleens weighed.
Pseudohypericin was diluted in phosphate buffered saline with 1% ethanol.
An expanded series of experiments was next performed in which various concentrations (i.e. 50, 100, 200 and 2×100, i.e., 100 micrograms administered twice) of a different set of PAC compounds (numbers 16-29 and 30-36 in Table III below) were administered intraperitoneally each according to the same protocol described above. Compounds 16-29 all had 3-5 fused, aromatic rings and no side groups except for oxygen or hydroxyl groups, whereas compounds 30-36 all had 3 fused aromatic rings and side chains selected from the group of oxygen, hydroxyl and methyl.
When 2 doses of the compounds were given, the second dose was administered 24-48 hours after the first injection. The animals were infected and splenomegaly determined as above for the compounds in Table II. In Table III, "pooled average percent inhibition" is calculated by adding the average percent inhibition for each experiment with the same compound and dividing the sum by the number of experiments (i.e. the number 4). […]

[2] = test system: Friend Leukemia Virus; assay: FV-induced splenomegaly, PAC compounds in combination with AZT (Example 1(b)); format: in vivo, BALB/c mice; details: for Spleen weight: single animal
Experimental: as §1, §2
The compounds of the present invention (100 micrograms per mouse) were also tested in combination with AZT (20 micrograms per mouse, twice a day) using otherwise the same methods as in Example 1(a) above. As representatives, compound #9 above (3-bromophenanthro (3,4-C), phenanthrene) and compound #10 (diindeno (1, 2, 3-CD/1', 2', 3'-IM) Perylene) were chosen. […] The compounds were administered i.p. either once or five times (once per day) alone or together with AZT (20 micrograms of AZT per mouse twice a day for five days?). Thus, in experiments where AZT was administered five times, a total of […] of AZT was received by each mouse (with a total of 500 micrograms of the PAC compound).

[3] = read-out: Average Perdosage % Inhibition, dose 2 × 100 (micrograms) i.p., Table III
[4] = read-out: Average Perdosage % Inhibition, dose 50 (micrograms) i.p., Table III
[5] = read-out: Average Perdosage % Inhibition, dose 100 (micrograms) i.p., Table III
[6] = read-out: Average Perdosage % Inhibition, dose 200 (micrograms) i.p., Table III
[7] = dose 2 × 100 (micrograms) i.p., Table III
[8] = dose 50 (micrograms) i.p., Table III
[9] = dose 100 (micrograms) i.p., Table III
[10] = dose 200 (micrograms) i.p., Table III
[11] = dose 2 × 100 (micrograms) i.p., Table III, read-out: Average Perdosage % Inhibition
[12] = dose 50 (micrograms) i.p., Table III, read-out: Average Perdosage % Inhibition
[13] = dose 100 (micrograms) i.p., Table III, read-out: Average Perdosage % Inhibition
[14] = dose 200 (micrograms) i.p., Table III, read-out: Average Perdosage % Inhibition
[15] = 1X, 100 micrograms per mouse i.p.
[16] = 5X, 100 micrograms per mouse i.p. once per day
[17] = 100 micrograms i.p. once, 24 h after FV, Table II

Work on `Cc1ccc2cc3ccccc3cc2c1` [Compound 25, 2-Methylanthracene] yielded an inhibition in vivo at 0.1 mg [1, 3] of 29%, an inhibition in vivo at 0.05 mg [1, 4] of 26% and an inhibition in vivo at 0.1 mg [1, 5] of 37%. The inhibition in vivo at 0.2 mg [1, 6] was 28%, the “Average Spleen Weight” value [1, 7] was 1.1758 and the “Average Spleen Weight” value [1, 8] was 1.2104. For the same compound, the “Average Spleen Weight” value [1, 9] was 1.0606, the “Average Spleen Weight” value [1, 10] was 1.1904 and the “Pooled Average % Inhibition” value ([1]; Table III) was 30%.

With `c1ccc2c(c1)c1ccccc1c1ccccc21` [Compound 19, Triphenylene] the inhibition in vivo at 0.1 mg [1, 3] was 13%, the inhibition in vivo at 0.05 mg [1, 4] was 37% and the inhibition in vivo at 0.1 mg [1, 5] was 4%. For the same compound, the inhibition in vivo at 0.2 mg [1, 6] was 13%, the “Average Spleen Weight” value [1, 7] was 1.4063 and the “Average Spleen Weight” value [1, 8] was 1.0499. For the same compound, the “Average Spleen Weight” value [1, 9] was 1.5345, the “Average Spleen Weight” value [1, 10] was 1.3994 and the “Pooled Average % Inhibition” value ([1]; Table III) was 17%.

In the case of `c1ccc(C2=C(c3ccccc3)C(c3ccccc3)=C(c3ccccc3)C2)cc1` [Compound 26, 1,2,3,4-Tetraphenyl-1,3-cyclopentadiene], the inhibition in vivo at 0.1 mg [1, 11] is reported as 0%, the inhibition in vivo at 0.05 mg [1, 12] is reported as 27% and the inhibition in vivo at 0.1 mg [1, 13] is reported as 39%. The inhibition in vivo at 0.2 mg [1, 14] was 33%, the “Average Spleen Weight” value [1, 7] was 1.5966 and the “Average Spleen Weight” value [1, 8] was 1.1985. For the same compound, the “Average Spleen Weight” value [1, 9] was 1.0280, the “Average Spleen Weight” value [1, 10] was 1.1131 and the “Pooled Average % Inhibition” value ([1]; Table III) was 25%.

In the case of `C1CCc2c(c3c(c4c2CCCC4)CCCC3)C1` [Compound 16, Dodecahydrotriphenylene], the “Actual Spleen Weight” value ([1]; dose 2 × 100 (micrograms) i.p., second dose 24-48 hours later, Table III) is reported as 1.161 and 1.2072, the “Average Perdosage % Inhibition” value [1, 7] is reported as 28% and the “Average Spleen Weight” value [1, 7] is reported as 1.1867. For the same compound, the “Average Perdosage % Inhibition” value [1, 8] was 44%, the “Average Spleen Weight” value [1, 8] was 0.9508 and the “Actual Spleen Weight” value [1, 8] was 0.9062 and 0.9954. The “Average Spleen Weight” value [1, 9] was 1.6057, the “Actual Spleen Weight” value [1, 9] was 1.6206 and 1.5907 and the “Average Perdosage % Inhibition” value [1, 10] was 24%. For the same compound, the “Average Spleen Weight” value [1, 10] was 1.2478, the “Actual Spleen Weight” value [1, 10] was 1.2007 and 1.2948 and the “Pooled Average % Inhibition” value ([1]; Table III) was 24%.

`Brc1cc2ccc3ccc4ccccc4c3c2c2c1ccc1ccccc12` [Compound 9, 3-Bromophenanthro(3,4-C)Phenanthrene] was tested, and the “% Inhibition” value [2, 15] was 3%, the Average Spleen Weight [2, 15] was 2.1074 and the Spleen weight [2, 15] was 2.0831 and 2.1317. For the same compound, the “% Inhibition” value [2, 16] was 24%, the Average Spleen Weight [2, 16] was 1.681 and the Spleen weight [2, 16] was 1.6262 and 1.7363. For the same compound, the “Average Spleen Weight” value [1, 17] was 0.8756 and the “inhibition of FV-induced splenomegaly / anti-retroviral activity” value ([1]; Example 1(a)) was “weak anti-retroviral activity”.

With `Cc1cc2ccc3ccc4ccccc4c3c2c2c1ccc1ccccc12` [Compound 11, 3-Methylphenanthro(3,4-C)Phenanthrene] the “Average Spleen Weight” value [1, 17] was 0.4235 and the inhibition in vivo at 0.1 mg ([1]; 24 h, read-out: Average % Inhibition, 100 micrograms i.p. once, 24 h after FV, Table II) was 50.5%.

`O=C1C(c2ccccc2)=C(c2ccccc2)C(c2ccccc2)=C1c1ccccc1` [Compound 24, Tetraphenylcyclo pentadienone] showed an inhibition in vivo at 0.1 mg [1, 11] of 24%, an inhibition in vivo at 0.05 mg [1, 12] of 20% and an inhibition in vivo at 0.1 mg [1, 13] of 14%. For the same compound, the inhibition in vivo at 0.2 mg [1, 14] was 6%, the “Average Spleen Weight” value [1, 7] was 1.2437 and the “Average Spleen Weight” value [1, 8] was 1.2959. For the same compound, the “Average Spleen Weight” value [1, 9] was 1.3940, the “Average Spleen Weight” value [1, 10] was 1.5070 and the “Pooled Average % Inhibition” value ([1]; Table III) was 16%.
